Reference: US11584744B2 (UNIVERSITY OF WASHINGTON, priority 2017, dated 2023)
In brackets after ≈: the same amount, converted by molar mass. Several values for one entry are separate records, joined by “and”; a condition that tells them apart may be missing. Identical values can stand only once. Like-named read-outs stand apart in the source and are kept apart here.

Legend:
[1] = target: recombinant S. aureus MetRS enzyme (Staphylococcus aureus, UniProt A0A0H2XID2); assay: Inhibition of SaMetRS, ATP depletion assay; assay type: biochemical; conditions: read-out: (B) MetRS (S. aureus) IC50
Protocol: Production of recombinant S. aureus MetRSs. The SaMetRS gene (UniProtKB—A0A0H2XID2) was PCR amplified (Sense 5′-[…]-3′ (SEQ ID NO: 1) and Antisense 5′-[…]-3′ (SEQ ID NO:2)) from genomic DNA isolated from S. aureus (ATCC 29213) cultures. The PCR product was then cloned into the AVA0421 plasmid and sequence verified. The expression of recombinant protein was performed as previously described. The N-terminal 6-His fusion proteins were purified by nickel affinity chromatography followed by size exclusion gel chromatography (Superdex 75 26/60; GE Biosciences, Piscataway, N.J.).
Enzyme assays. Inhibition of SaMetRS was measured using the ATP depletion assay as previously described with some modifications. Compounds were pre-incubated for 15 minutes at room temperature in a 96-well plate with 400 μg/mL bulk E. coli tRNA, 25 nM SaMetRS, 0.1 U/mL pyrophosphatase, 0.2 mM spermine, 0.1 mg/mL bovine serum albumin, 2.5 mM dithiothreitol, 25 mM HEPES-KOH pH 7.9, 10 mM MgCl2, 50 mM KCl, and 2% DMSO. Reagents were purchased from Sigma-Aldrich or Roche. The reaction was started with the addition of 150 nM ATP and 20 μM L-methionine and after 120 minute incubation was stopped by the addition of an equal volume (50 μL) of Kinase-Glo® (Promega). Percent inhibition=100×(test compound−AVG low control)/(AVG high control−AVG low control) where the low control is all reagents except the compound and the high control is all reagents except the compounds and L-methionine. IC50 values were calculated by non-linear regression, sigmoidal-dose response, in Prism 3.0.

[2] = system: E. faecium VRE (ATCC 51559); assay: MIC susceptibility testing; assay type: cell-based, Enterococcus faecium; conditions: Enterococcus faecium, E. faecium ATCC 51559; read-out: (I) E. faecium (ATCC 51559) MIC
In short: (§1)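 CLSI broth microdilution with two-fold compound dilutions, in triplicate; cells added in medium at 1×10^6 CFUs/mL, DMSO ≤0.5%. Media: MHB for S. aureus, CA-MHB for E. coli and E. faecium, CA-MHB plus 3% laked horse blood for S. pyogenes (5% CO2).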

[3] = system: S. aureus MSSA (ATCC 29213); assay: MIC susceptibility testing; assay type: cell-based, Staphylococcus aureus; conditions: Staphylococcus aureus, S. aureus ATCC 29213, read-out: (F) S. aureus (ATCC 29213) MIC
[4] = system: S. aureus MRSA (ATCC 33591); assay: MIC susceptibility testing; assay type: cell-based, Staphylococcus aureus; conditions: MRSA ATCC33591; for MIC: Staphylococcus aureus, read-out: (G) MRSA (ATCC33591) MIC
In short: as §1

[5] = target: MetRS (C. parvum) (Cryptosporidium parvum, UniProt Q5CVN0); assay: MetRS (C. parvum) enzyme inhibition; assay type: biochemical; conditions: read-out: (C) MetRS (C. parvum) IC50
[6] = system: T. cruzi; assay: T. cruzi growth inhibition; assay type: cell-based, Trypanosoma cruzi; conditions: read-out: (E) T. cruzi EC50
[7] = target: T1, MetRS (T. brucei) (Trypanosoma brucei brucei, UniProt Q38C91); assay: MetRS (T. brucei) enzyme inhibition; assay type: biochemical
T1 sequence (Q38C91 1-773): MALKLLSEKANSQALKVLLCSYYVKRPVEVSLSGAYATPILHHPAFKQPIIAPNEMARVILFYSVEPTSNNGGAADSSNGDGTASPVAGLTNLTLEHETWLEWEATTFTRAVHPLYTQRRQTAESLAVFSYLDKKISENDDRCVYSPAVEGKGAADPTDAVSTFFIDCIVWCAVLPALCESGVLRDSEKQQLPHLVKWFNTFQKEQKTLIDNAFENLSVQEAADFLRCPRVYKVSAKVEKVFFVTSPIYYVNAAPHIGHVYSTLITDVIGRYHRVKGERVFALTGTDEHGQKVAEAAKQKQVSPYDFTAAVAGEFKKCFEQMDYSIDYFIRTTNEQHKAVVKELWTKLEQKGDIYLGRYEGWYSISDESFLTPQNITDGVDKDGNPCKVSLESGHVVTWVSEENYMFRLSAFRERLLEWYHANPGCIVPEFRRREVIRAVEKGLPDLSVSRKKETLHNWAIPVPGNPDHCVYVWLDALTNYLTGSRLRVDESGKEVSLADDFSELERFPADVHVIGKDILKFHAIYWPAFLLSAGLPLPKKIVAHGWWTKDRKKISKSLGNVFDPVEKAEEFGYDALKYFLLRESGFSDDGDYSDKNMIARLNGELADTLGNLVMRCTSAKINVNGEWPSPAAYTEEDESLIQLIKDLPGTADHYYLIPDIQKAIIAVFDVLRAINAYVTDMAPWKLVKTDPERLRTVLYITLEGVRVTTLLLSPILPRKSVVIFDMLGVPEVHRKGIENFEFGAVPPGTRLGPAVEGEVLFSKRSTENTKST

[8] = system: T. brucei; assay: T. brucei growth inhibition; assay type: cell-based, Trypanosoma brucei; conditions: read-out: (D) T. brucei EC50
[9] = system: S. pyogenes (ATCC 19615); assay: MIC susceptibility testing; assay type: cell-based; conditions: Streptococcus pyogenes, ATCC19615, S. pyogenes ATCC 19615; read-out: (H) S. pyogenes (ATCC 19615) MIC
Description: Media and culture conditions. Mueller Hinton broth (MHB), cation adjusted Mueller Hinton broth (CA-MHB), and Brain Heart Infusion broth (BHI) were purchased from Becton Dickinson (Franklin Lakes, N.J.). Tryptic soy agar (TSA) plates, TSA with 5% sheep blood plates, and CA-MHB with 3% laked horse blood were purchased from Remel (San Diego, Calif.). MHB was used to assay all Staphylococcus aureus strains. CA-MHB was used for Staphylococcus epidermidis, Enterococcus faecalis, Enterococcus faecium, Escherichia coli, and Pseudomonas aeruginosa. CA-MHB supplemented with 3% laked horse blood was used for Streptococcus pneumoniae and Streptococcus pyogenes. Staphylococcus, Enterococcus, Escherichia, and Pseudomonas strains were cultured at 37° C. with ambient air. Streptococcus strains were cultured in 37° C. with 5% CO2. Separate conditions for radiolabeled precursor uptake assays are described below.
Susceptibility testing: Minimum inhibitory concentration (MIC) determinations were performed in triplicate in 96-well round bottom microtiter plates (Corning, Corning N.Y.) as described by the Clinical and Laboratory Standards Institute (CLSI). Serial two-fold dilutions of compounds were added to plates in 50 μL volumes. An additional 50 μL of media containing bacterial cells (1×10^6 CFUs/mL) was then added to each well. Maximum DMSO concentrations were 0.5%. Plates were incubated at 37° C. for at least 18 h before reading the susceptibility result by optical absorbance (OD600) using a BioTek ELx800. The lowest concentration causing ≥90% growth inhibition compared to the untreated control was recorded as the MIC (and also corresponded to the visual MIC). MICs were measured at least twice and the higher value (if different) was recorded herein.

[10] = system: C. parvum; assay: C. parvum growth inhibition; assay type: cell-based, Cryptosporidium parvum; conditions: Cryptosporidium parvum; read-out: (J) C. parvum EC50

Chain of MetRS (C. parvum) (Q5CVN0 entry or part of it): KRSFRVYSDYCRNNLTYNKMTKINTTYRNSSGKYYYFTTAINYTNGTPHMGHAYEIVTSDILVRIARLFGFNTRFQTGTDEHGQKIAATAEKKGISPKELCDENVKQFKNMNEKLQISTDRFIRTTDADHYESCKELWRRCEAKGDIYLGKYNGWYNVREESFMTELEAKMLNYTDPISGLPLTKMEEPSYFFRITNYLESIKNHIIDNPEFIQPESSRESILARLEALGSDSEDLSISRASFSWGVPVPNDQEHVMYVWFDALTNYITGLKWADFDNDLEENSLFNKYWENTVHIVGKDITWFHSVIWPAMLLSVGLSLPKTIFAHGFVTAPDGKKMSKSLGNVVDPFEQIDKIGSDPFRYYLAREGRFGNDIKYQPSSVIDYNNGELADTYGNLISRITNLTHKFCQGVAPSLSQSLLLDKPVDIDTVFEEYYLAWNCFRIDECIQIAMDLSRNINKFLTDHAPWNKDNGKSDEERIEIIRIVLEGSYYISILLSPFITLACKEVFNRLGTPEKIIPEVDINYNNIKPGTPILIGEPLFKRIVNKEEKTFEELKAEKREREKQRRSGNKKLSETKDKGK

MIC [9] [µg/mL]	MIC ([3]; ATCC29213|MSSA) [µg/mL]	Compound	IC50 [1] [nM]	MIC [2] [µg/mL]	MIC [3] [µg/mL]	MIC [4] [µg/mL]	IC50 [5] [nM]	EC50 ([6]; Trypanosoma cruzi) [nM]	IC50 [7] [nM]	(G) MRSA (ATCC33591) MIC [4]	EC50 ([8]; Trypanosoma brucei) [nM]	EC50 [8] [nM]	EC50 [6] [nM]	EC50 [10] [nM]
		COCCCn1c(Cc2ccc(Cl)cc2Cl)cn(Cc2nc3ccc(F)nc3[nH]2)c1=O [Compound 2082, 4-[(2,4-dichlorophenyl)methyl]-1-({5-fluoro-1H-imidazo[4,5-b]pyridin-2-yl}methyl)-3-(3-methoxypropyl)-2,3-dihydro-1H-imidazol-2-one]	< 25	0.238 (≈ 0.513 µM)	0.18 (≈ 0.388 µM)	1.54 (≈ 3.32 µM)	< 40	145	< 40					
		Clc1ccc(-c2cccc3nc(Cc4nc5nc(Cl)ccc5[nH]4)cn23)c(Cl)c1 [Compound 2134, 2-({5-chloro-1H-imidazo[4,5-b]pyridin-2-yl}methyl)-5-(2,4-dichlorophenyl)-imidazo[1,2-a]pyridine]	< 25	0.259 (≈ 0.604 µM)	0.162 (≈ 0.378 µM)	0.268 (≈ 0.625 µM)	58.8	685	< 40	0.331 µg/mL	64			
1.16 (≈ 2.49 µM)	0.124 (≈ 0.266 µM)	CCn1c(Cc2c(Cl)cc(Cl)cc2OC)cn(Cc2nc3ccc(Cl)nc3[nH]2)c1=O [Compound 2295]						5.3			< 0.91	0.71	4.59	
		COc1cc(-c2cccc3nc(Cc4nc5nc(Br)ccc5[nH]4)cn23)c(Cl)cc1Cl [Compound 2146, 2-({5-bromo-1H-imidazo[4,5-b]pyridin-2-yl}methyl)-5-(2,4-dichloro-5-methoxyphenyl)imidazo[1,2-a]pyridine]	< 25	0.141 (≈ 0.28 µM)		0.127 (≈ 0.252 µM)	92.4	19.5	< 40	0.165, μg/mL and 0.179 μg/mL			29.7	1990
		O=c1n(Cc2nc3ccc(Cl)nc3[nH]2)cc(Cc2ccc(Cl)cc2Cl)n1CC(F)F [Compound 2138, 1-({5-chloro-1H-imidazo[4,5-b]pyridin-2-yl}methyl)-4-[(2,4-dichlorophenyl)-methyl]-3-(2,2-difluoroethyl)-2,3-dihydro-1H-imidazol-2-one]	< 25	0.596 (≈ 1.26 µM)	0.062 (≈ 0.131 µM)	0.553 (≈ 1.17 µM)	< 40	26.7	< 40		2.46	3.48	53.1	
> 8		CC(C)NCC(O)Cn1c(Cc2ccc(Cl)cc2Cl)cn(Cc2nc3cc(F)c(F)cc3[nH]2)c1=O (stereo not drawn) [Compound 2293, 4-[(2,4-dichlorophenyl)methyl]-1-[(5,6-difluoro-1H-1,3-benzodiazol-2-yl)methyl]-3-{2-hydroxy-3-[(propan-2-yl)amino]propyl}-2,3-dihydro-1H-imidazol-2-one]			> 8						831			
		Fc1ccc2[nH]c(Cc3cn4c(-c5ccc(Cl)cc5Cl)cccc4n3)nc2n1 [Compound 2135, 5-(2,4-dichlorophenyl)-2-({5-fluoro-1H-imidazo[4,5-b]pyridin-2-yl}methyl)imidazo[1,2-a]pyridine]	< 25	1.33 (≈ 3.23 µM)	0.592 (≈ 1.44 µM)		56.7	2160	< 40		99.3			
		COc1cc(-c2cccc3nc(Cc4nc5nc(Cl)ccc5[nH]4)cn23)c(Cl)cc1Cl [Compound 2128, 2-({5-chloro-1H-imidazo[4,5-b]pyridin-2-yl}methyl)-5-(2,4-dichloro-5-methoxyphenyl)imidazo[1,2-a]pyridine]	< 25	0.24 (≈ 0.523 µM)			< 40	5.88	< 40		3.62	3.4	10.8	1680
> 8		CC(C)NCC(O)Cn1c(Cc2ccc(Cl)cc2Cl)cn(Cc2nc3ccc(F)nc3[nH]2)c1=O (stereo not drawn) [Compound 2294, 4-[(2,4-dichlorophenyl)methyl]-1-({5-fluoro-1H-imidazo[4,5-b]pyridin-2-yl}methyl)-3-{2-hydroxy-3-[(propan-2-yl)amino]propyl}-2,3-dihydro-1H-imidazol-2-one]			> 8			3330			30.4			
		COc1ccc(-c2ccc(NC(C)=O)c3nc(Cc4nc5nc(Br)ccc5[nH]4)cn23)c(Cl)c1 [Compound 2184, N-[2-({5-bromo-1H-imidazo[4,5-b]pyridin-2-yl}methyl)-5-(2-chloro-4-methoxyphenyl)imidazo[1,2-a]pyridin-8-yl]acetamide]	< 25	0.286 (≈ 0.544 µM)	0.201 (≈ 0.382 µM)	0.435 (≈ 0.827 µM)	< 40	29.3	< 40				23.1	719
		COc1ccc(-c2ccc(NS(C)(=O)=O)c3nc(Cc4nc5nc(Cl)ccc5[nH]4)cn23)c(Cl)c1 [Compound 2174, N-[2-({5-chloro-1H-imidazo[4,5-b]pyridin-2-yl}methyl)-5-(2-chloro-4-methoxyphenyl)imidazo[1,2-a]pyridin-8-yl]methanesulfonamide]	< 25	0.318 (≈ 0.615 µM)	0.158 (≈ 0.305 µM)	0.319 (≈ 0.617 µM)	< 40	195	< 40					1190
